The source of these data is patent US10793563B2, “GCN2 inhibitors and uses thereof” (Merck Patent GmbH, priority 2018, dated 2020).

As a reminder, the IC50 is the concentration that inhibits the measured activity by half.

Assay [1] deals with intracellular GCN2 (phosphorylation of the GCN2 substrate eIF2α) (Homo sapiens (Human), UniProt Q9P2K8). Briefly: GCN2 Cellular Inhibition Assay (AlphaScreen SureFire P-eIF2α Ser51, borrelidin-treated U2OS cells). It counts as cell-based. The settings on record: 10 μM borrelidin, 1 h, phosphorylated eIF2α Ser51, read-out: GCN2 Biomarker (IC50). The method, then:
Compounds can be screened for their ability to inhibit intracellular GCN2 using an AlphaScreen assay (Perkin Elmer) to detect phosphorylation of the GCN2 substrate eIF2α in borrelidin-treated cells. U2OS cells are plated at 5,000 cells per well in 384-well white polystyrene plates (Corning 3570) in McCoy's 5A media (GIBCO 26600-023) supplemented with 10% foetal bovine serum (SAFC 12103C), Penicillin/Streptomycin solution diluted 1:100 (Sigma P0781), and 2 mM L-glutamine (Sigma G7513), and allowed to adhere overnight at 37° C. in 5% CO2. Compounds are then added to the cell media from a final concentration of 40 μM in 4-fold serial dilutions. Borrelidin (FluoroChem M01440) is immediately added to the wells to a final concentration of 10 μM and the cells are incubated for 1 h at 37° C. in 5% CO2. After 1 h of treatment with borrelidin, the media is removed, and the cells are lysed with lysis buffer (TGR BioSceinces TGRLB) at ambient temperature.
An AlphaScreen SureFire P-eIF2α (Ser51) assay kit (Perkin Elmer TGREIF2S) was used to measure levels of eIF2α phosphorylated on Serine 51. Anti-phosphorylated eIF2α Ser51 antibody-linked acceptor beads (TGR BioScience 6760617) are added to the cell homogenate (diluted 1:250 into a mixture of activation (TGR BioScience TGRAB) and reaction buffer (TGR BioScience TGREIF2S) prepared immediately before use). The plate is then incubated for 2 h at ambient temperature in the dark. Anti-eIF2α antibody-linked donor beads (TGR BioScience 6760617) were then added (diluted 1:100 in dilution buffer (TGR BioScience TGRDB) prepared immediately before use). The plate is then incubated overnight at ambient temperature in the dark.
Plates are analyzed on an Alpha Technology-compatible PHERAstar FS plate reader (BMG Labtech Version 1.14) to quantify phosphorylated eIF2α Ser51 levels. The percentage inhibition of phosphorylated eIF2α is calculated by comparison to control wells stimulated with borrelidin alone.

In assay [2] the target is GCN2 kinase (Homo sapiens (Human), UniProt Q9P2K8). As to the kind of experiment: GCN2 Enzyme Inhibition Assay (Transcreener ADP2 fluorescence polarization). It counts as biochemical. As to conditions: 280 μM ATP, 200 μM (RS)7 peptide, 4 nM GCN2, 25° C.; for Ki: Ki(app). The essentials: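 Transcreener ADP2 fluorescence polarization detection of ADP from 4 nM GCN2 with (RS)7 substrate in 25 mM Tris-HCl pH 7.5, 50 mM NaCl, 10 mM MgCl2, 1 mM DTT. Compound pre-incubated with enzyme 10 min at 25 °C; reaction started by ATP, run 1 h at 25 °C. IC50 and Ki(app) by tight-binding fit.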
For orientation: Fluorescence polarisation rises when a labelled molecule tumbles more slowly, as on binding a larger partner.

GCN2 kinase, sequence (Q9P2K8 whole entry): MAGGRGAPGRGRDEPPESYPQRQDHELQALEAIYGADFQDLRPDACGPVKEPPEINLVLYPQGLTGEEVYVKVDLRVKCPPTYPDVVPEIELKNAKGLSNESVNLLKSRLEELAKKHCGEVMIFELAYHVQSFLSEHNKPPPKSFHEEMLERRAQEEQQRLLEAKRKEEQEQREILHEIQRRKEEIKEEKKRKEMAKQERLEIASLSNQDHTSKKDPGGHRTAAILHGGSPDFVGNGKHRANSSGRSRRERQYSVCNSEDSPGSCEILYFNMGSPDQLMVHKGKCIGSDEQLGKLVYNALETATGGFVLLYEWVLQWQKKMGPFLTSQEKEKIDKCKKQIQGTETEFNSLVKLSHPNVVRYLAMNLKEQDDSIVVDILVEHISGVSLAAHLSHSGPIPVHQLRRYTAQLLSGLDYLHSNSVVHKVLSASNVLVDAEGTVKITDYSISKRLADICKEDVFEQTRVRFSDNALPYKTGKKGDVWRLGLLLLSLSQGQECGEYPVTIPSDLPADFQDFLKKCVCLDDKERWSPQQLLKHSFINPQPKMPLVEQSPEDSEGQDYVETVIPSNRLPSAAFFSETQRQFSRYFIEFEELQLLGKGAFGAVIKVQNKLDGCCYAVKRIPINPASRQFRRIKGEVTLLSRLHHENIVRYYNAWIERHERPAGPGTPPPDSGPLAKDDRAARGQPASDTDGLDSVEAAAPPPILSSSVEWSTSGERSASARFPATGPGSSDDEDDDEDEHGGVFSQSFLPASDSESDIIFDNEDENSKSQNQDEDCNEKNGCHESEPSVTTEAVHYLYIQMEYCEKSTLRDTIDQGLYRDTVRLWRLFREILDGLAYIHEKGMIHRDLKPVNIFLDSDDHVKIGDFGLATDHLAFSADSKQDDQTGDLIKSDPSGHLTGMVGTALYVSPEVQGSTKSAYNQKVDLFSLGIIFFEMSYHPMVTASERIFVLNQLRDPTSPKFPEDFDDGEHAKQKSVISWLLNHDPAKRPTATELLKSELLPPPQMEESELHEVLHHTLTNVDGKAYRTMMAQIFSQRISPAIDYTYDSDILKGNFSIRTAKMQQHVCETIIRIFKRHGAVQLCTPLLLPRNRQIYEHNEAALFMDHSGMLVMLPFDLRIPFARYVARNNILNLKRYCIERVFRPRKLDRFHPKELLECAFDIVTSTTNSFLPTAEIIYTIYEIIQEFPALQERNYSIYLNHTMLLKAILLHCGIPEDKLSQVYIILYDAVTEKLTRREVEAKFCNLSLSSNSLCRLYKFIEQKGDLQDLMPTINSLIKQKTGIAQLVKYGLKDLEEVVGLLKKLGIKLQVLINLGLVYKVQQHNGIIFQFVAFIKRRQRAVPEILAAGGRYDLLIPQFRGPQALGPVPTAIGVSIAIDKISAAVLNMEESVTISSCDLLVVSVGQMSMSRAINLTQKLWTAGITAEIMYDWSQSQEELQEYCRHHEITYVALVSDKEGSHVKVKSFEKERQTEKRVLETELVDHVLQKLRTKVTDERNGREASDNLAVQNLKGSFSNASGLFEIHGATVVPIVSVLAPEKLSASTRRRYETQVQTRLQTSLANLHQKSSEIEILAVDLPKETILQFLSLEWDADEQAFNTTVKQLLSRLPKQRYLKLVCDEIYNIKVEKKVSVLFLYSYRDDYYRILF
intracellular GCN2 (phosphorylation of the GCN2 substrate eIF2α), sequence (Q9P2K8 whole entry): as above

As to `Cc1[nH]ncc1[C@@H]1C[C@@H](O)CN(c2ccnc(-c3cnc4ccc(C(F)(F)F)cn34)n2)C1` [I-308, (3R,5S)-5-(5-methyl-1H-pyrazol-4-yl)-1-(2-(6-(trifluoromethyl)imidazo[1,2-a]pyridin-3-yl)pyrimidin-4-yl)piperidin-3-ol], the IC50 in assay [1] was in the range of 500 to 5000 nM; in assay [2] it was 10 to 100 nM.
On to `FC(F)(F)c1ccc2ncc(-c3nccc(N4CCC[C@H](C(F)(F)F)C4)n3)n2c1` [I-233, (S)-6-(trifluoromethyl)-3-(4-(3-(trifluoromethyl)piperidin-1-yl)pyrimidin-2-yl)imidazo[1,2-a]pyridine], for which the half-maximal inhibitory concentration (IC50) in assay [1] is 500 to 5000 nM; in assay [2], 100 to 1000 nM.
In the case of `C[C@@H]1CN(c2nccc(-c3cnc4ccc(Cl)cn34)n2)C[C@@H](c2cn[nH]c2)O1` [I-251, (2R,6R)-4-(4-(6-chloroimidazo[1,2-a]pyridin-3-yl)pyrimidin-2-yl)-2-methyl-6-(1H-pyrazol-4-yl)morpholine], the IC50 in assay [1] is 500 to 5000 nM; in assay [2], 10 to 100 nM.
As to `Clc1ccc2ncc(-c3nccc(N4CCCC(c5c[nH]cn5)C4)n3)n2c1` (centres unmarked) [I-55, 6-Chloro-3-{4-[3-(1H-imidazol-4-yl)-piperidin-1-yl]-pyrimidin-2-yl}-imidazo[1,2-a]pyridine], the IC50 in assay [1] is 500 to 5000 nM. This compound came in with a Ki in assay [2] of 10 to 100 nM.
Turning to `C[C@@H]1CCN(c2ccnc(-c3cnc4ccc(C(F)(F)F)cn34)n2)CC1F` (stereo in doubt) [I-240, 3-(4-((3R,4R)-3-fluoro-4-methylpiperidin-1-yl)pyrimidin-2-yl)-6-(trifluoromethyl)imidazo[1,2-a]pyridine], the IC50 in assay [1] lay in the range of 500 to 5000 nM; in assay [2] it was 100 to 1000 nM.
Turning to `CC1CC(N=S(C)(C)=O)CN(c2ccnc(-c3cnc4ccc(C(F)(F)F)cn34)n2)C1` (centres unmarked) [I-32, dimethyl((5-methyl-1-(2-(6-(trifluoromethyl)imidazo[1,2-a]pyridin-3-yl)pyrimidin-4-yl)piperidin-3-yl)imino)-λ^6-sulfanone], the IC50 in assay [1] is 500 to 5000 nM. For the same compound, the Ki in assay [2] is 10 to 100 nM.
For the compound `OC1CC(N2CCN(c3ccnc(-c4cnc5ccc(C(F)(F)F)cn45)n3)CC2c2cn[nH]c2)C1` (centres unmarked) [I-383, 3-(2-(1H-pyrazol-4-yl)-4-(2-(6-(trifluoromethyl)imidazo[1,2-a]pyridin-3-yl)pyrimidin-4-yl)piperazin-1-yl)cyclobutan-1-ol], the IC50 in assay [1] was 500 to 5000 nM; in assay [2] it was < 10 nM.
The matching figures for `CC1(C)CN(c2ccnc(-c3cnc4ccc(C(F)F)cn34)n2)CC2(CN(S(C)(=O)=O)C2)O1` [I-396, 8-(2-(6-(difluoromethyl)imidazo[1,2-a]pyridin-3-yl)pyrimidin-4-yl)-6,6-dimethyl-2-(methylsulfonyl)-5-oxa-2,8-diazaspiro[3.5]nonane]: > 5000 nM and 10 to 100 nM.
The matching figures for `C[C@H]1[C@@H](CNS(C)(=O)=O)N(C2CC2)CCN1c1nccc(-c2cnc3ccc(C(F)(F)F)cn23)n1` [I-541, N-(((2R,3 S)-1-cyclopropyl-3-methyl-4-(4-(6-(trifluoromethyl)imidazo[1,2-a]pyridin-3-yl)pyrimidin-2-yl)piperazin-2-yl)methyl)methanesulfonamide]: 500 to 5000 nM and 100 to 1000 nM.
For the compound `CS(=O)(=O)NC[C@@H]1CN(c2nccc(-c3cnc4ccc(C(F)F)cn34)n2)CCO1` [I-17, N-[[(2S)-4-[4-[6-(Difluoromethyl)imidazo[1,2-a]pyridin-3-yl]pyrimidin-2-yl]morpholin-2-yl]methyl]methanesulfonamide], the IC50 in assay [1] was < 500 nM. Also, the Ki in assay [2] was < 10 nM.
Take `Cn1cc(CN2CCN(c3ccnc(-c4cnc5ccc(C(F)(F)F)cn45)n3)CC2c2cn[nH]c2)cn1` (centres unmarked) [I-384, 3-(4-(4-((1-methyl-1H-pyrazol-4-yl)methyl)-3-(1H-pyrazol-4-yl)piperazin-1-yl)pyrimidin-2-yl)-6-(trifluoromethyl)imidazo[1,2-a]pyridine]: the 50% inhibitory concentration (IC50) was < 500 nM in assay [1] and < 10 nM in assay [2].
In the same order, the values of `Cc1cc(-c2cnc3ccc(N4CC(F)(F)C4)cn23)nc(N2C[C@@H](C)C[C@H](c3cn[nH]c3)C2)n1` [I-287, 6-(3,3-difluoroazetidin-1-yl)-3-(6-methyl-2-((3 S, 5R)-3-methyl-5-(1H-pyrazol-4-yl)piperidin-1-yl)pyrimidin-4-yl)imidazo[1,2-a]pyridine] are < 500 nM and 10 to 100 nM.
In the same order, the values of `C[C@H](NS(C)(=O)=O)[C@@H]1[C@H](C)N(c2ccnc(-c3cnc4ccc(C(F)(F)F)cn34)n2)CCN1C1CC1` [I-500, N—((S)-1-((2S,3 S)-1-cyclopropyl-3-methyl-4-(2-(6-(trifluoromethyl)imidazo[1,2-a]pyridin-3-yl)pyrimidin-4-yl)piperazin-2-yl)ethyl)methanesulfonamide] are 500 to 5000 nM and 100 to 1000 nM.
As to `C[C@@H]1CN(c2nccc(-c3cnc4ccc(C(F)(F)F)cn34)n2)[C@H](C)C(c2cn[nH]c2)N1` (stereo partly drawn) [I-171, 3-(2-((2R,5R)-2,5-dimethyl-3-(1H-pyrazol-4-yl)piperazin-1-yl)pyrimidin-4-yl)-6-(trifluoromethyl)imidazo[1,2-a]pyridine], the IC50 in assay [1] is < 500 nM; in assay [2], 10 to 100 nM.
The matching figures for `FC(F)(F)c1ccc2ncc(-c3nccc(N4CCCC5(CNC5)C4)n3)n2c1` [I-413, 6-(2-(6-(trifluoromethyl)imidazo[1,2-a]pyridin-3-yl)pyrimidin-4-yl)-2,6-diazaspiro[3.5]nonane]: > 5000 nM and 100 to 1000 nM.
In the same order, the values of `FC(F)(F)c1ccc2ncc(-c3ccnc(N4CCN(C[C@@H]5CCCOC5)[C@H](c5cn[nH]c5)C4)n3)n2c1` [I-544, 3-(2-((R)-3-(1H-pyrazol-4-yl)-4-(((S)-tetrahydro-2H-pyran-3-yl)methyl)piperazin-1-yl)pyrimidin-4-yl)-6-(trifluoromethyl)imidazo[1,2-a]pyridine] are < 500 nM and < 10 nM.
As for `CC1(C)CN(c2ccnc(-c3cnc4ccc(C(F)(F)F)cn34)n2)CC2(CN(S(C)(=O)=O)C2)O1` [I-304, 6,6-dimethyl-2-(methylsulfonyl)-8-(2-(6-(trifluoromethyl)imidazo[1,2-a]pyridin-3-yl)pyrimidin-4-yl)-5-oxa-2,8-diazaspiro[3.5]nonane], the IC50 fell in the range of 500 to 5000 nM in assay [1] and 10 to 100 nM in assay [2].
For the compound `Cc1[nH]ncc1C1CN(c2ccnc(-c3cnc4ccc(Cl)cn34)n2)CC(C)N1` (centres unmarked) [I-267, 6-chloro-3-(4-(3-methyl-5-(5-methyl-1H-pyrazol-4-yl)piperazin-1-yl)pyrimidin-2-yl)imidazo[1,2-a]pyridine], the IC50 lay within 500 to 5000 nM in assay [1] and 10 to 100 nM in assay [2].
In the case of `O=C(c1c[nH]cn1)N1CCN(c2ccnc(-c3cnc4ccc(C(F)(F)F)cn34)n2)CC1c1cn[nH]c1` (centres unmarked) [I-445, (2-(1H-pyrazol-4-yl)-4-(2-(6-(trifluoromethyl)imidazo[1,2-a]pyridin-3-yl)pyrimidin-4-yl)piperazin-1-yl)(1H-imidazol-4-yl)methanone], the IC50 fell in the range of 500 to 5000 nM in assay [1] and 10 to 100 nM in assay [2].
The matching figures for `NC(=O)C1CN(c2ccnc(-c3cnc4ccc(C(F)(F)F)cn34)n2)CCN1C1COC1` (centres unmarked) [I-263, 1-(oxetan-3-yl)-4-(2-(6-(trifluoromethyl)imidazo[1,2-a]pyridin-3-yl)pyrimidin-4-yl)piperazine-2-carboxamide]: 500 to 5000 nM and 10 to 100 nM.
With `Fc1cc2ncc(-c3nccc(N4CCOC(c5ccccn5)C4)n3)n2cc1Cl` (centres unmarked) [I-88, 6-Chloro-7-fluoro-3-[4-(2-pyridin-2-yl-morpholin-4-yl)-pyrimidin-2-yl]-imidazo[1,2-a]pyridine], in assay [1], the IC50 was < 500 nM. This compound had a Ki in assay [2] of 100 to 1000 nM.
In the case of `CS(=O)(=O)NC[C@@H]1CN(c2nc(-c3cnc4ccc(C(F)(F)F)cn34)ns2)CCO1` [I-106, (S)—N-((4-(3-(6-(trifluoromethyl)imidazo[1,2-a]pyridin-3-yl)-1,2,4-thiadiazol-5-yl)morpholin-2-yl)methyl)methanesulfonamide], in assay [1], the IC50 is > 5000 nM. In assay [2], this compound displayed a Ki of 10 to 100 nM.
